Test results taken from patent US20240390413A1, “POLYMERS OBTAINED BY THE REACTION OF A PHENOLIC COMPOUND AND A CARBONYL COMPOUND AS ANTI-SARS-COV-2 AGENTS” (BASF SE, priority 2021, published 2024).
Like-named read-outs stand apart in the source and are kept apart here.

Legend:
SARS-CoV-2 [1] = format: cell-based; conditions: Calu3 cells; formulations A-1 to A-6 (1,000 to 0 μg/ml condensation product); Camostat 100 μM or 10 μM as control
SARS-CoV-2 [2] = format: cell-based; conditions: precision cut human lung slices; 1, 10 or 100 μg/ml; water control

What does the source list for CN(C)C(=O)COC(=O)Cc1ccc(OC(=O)c2ccc(NC(=N)N)cc2)cc1 [Camostat]?
viral titer (SARS-CoV-2 [1]): reduction observed; viral titer (SARS-CoV-2 [2]): reduced the viral titer in a dose-dependent manner
